Test results reported in PubChem BioAssay AID328 (DTP/NCI, 2004).
Values joined by “and” are separate entries in the source; they are usually repeats but may differ in a detail not shown here. Identical values can stand only once. Inconclusive results and toxic doses are left out.

Test system: BDF1 mice, P388 leukemia ip, median survival T/C
Assay: NCI In Vivo Anticancer Drug Screen. Data for tumor model P388 Leukemia (intraperitoneal) in B6D2F1 (BDF1) mice
Details: endpoint: median survival time, higher = longer survival
Procedure, shortened: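 In tumour-bearing mice, survival after compound treatment is set against the vehicle group and given as a quotient.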

[1] = dose: 50.0 mg/kg/injection, schedule: Q04DX003 (ip), vehicle: saline with Tween-80
[2] = dose: 100.0 mg/kg/injection, schedule: Q04DX003 (ip), vehicle: saline sonified
[3] = dose: 100.0 mg/kg/injection, schedule: Q04DX003 (ip), vehicle: saline with Tween-80
[4] = dose: 100.0 mg/kg/injection, schedule: Q01DX009 (ip), vehicle: saline with Tween-80
[5] = dose: 200.0 mg/kg/injection, schedule: Q01DX009 (ip), vehicle: saline with Tween-80
[6] = dose: 100.0 mg/kg/injection, schedule: Q04DX003 (ip), vehicle: saline
[7] = dose: 200.0 mg/kg/injection, schedule: Q04DX003 (ip), vehicle: saline
[8] = dose: 50.0 mg/kg/injection, schedule: Q01DX009 (ip), vehicle: saline with Tween-80

For `CN(C)C(=S)N=Nc1c(O)[nH]c2ccccc12`, the T/C (dose: 1.56 mg/kg/injection, schedule: Q01DX009 (ip), vehicle: saline with Tween-80) was 109 % of control, the T/C (dose: 3.13 mg/kg/injection, schedule: Q01DX009 (ip), vehicle: saline with Tween-80) was 100 % of control and the T/C (dose: 6.25 mg/kg/injection, schedule: Q01DX009 (ip), vehicle: saline with Tween-80) was 100 % of control. For the same molecule, the T/C (dose: 12.5 mg/kg/injection, schedule: Q01DX009 (ip), vehicle: saline with Tween-80) was 92 % of control, the T/C (dose: 25.0 mg/kg/injection, schedule: Q04DX003 (ip), vehicle: saline with Tween-80) was 105 % of control and the T/C [1] was 100 % of control. The T/C [2] was 90 % of control, the T/C [3] was 100 % of control and the T/C (dose: 400.0 mg/kg/injection, schedule: Q04DX003 (ip), vehicle: saline sonified) was 90 % of control.

`CCC(=O)Oc1ccc2c(c1)CC[C@@H]1[C@@H]2CC[C@]2(C)C[C@H](OC(=O)CC)C[C@@H]12` was tested, and the T/C [4] was 100 % of control, the T/C [3] was 95 % of control and the T/C [5] was 118 % of control. The T/C (dose: 200.0 mg/kg/injection, schedule: Q04DX003 (ip), vehicle: saline with Tween-80) was 100 % of control, the T/C (dose: 400.0 mg/kg/injection, schedule: Q01DX009 (ip), vehicle: saline with Tween-80) was 118 % of control and the T/C (dose: 400.0 mg/kg/injection, schedule: Q04DX003 (ip), vehicle: saline with Tween-80) was 90 % of control.

`CCCCCCCCCCCCCCCCCCSc1ccccc1` was tested, and the T/C (dose: 6.25 mg/kg/injection, schedule: Q04DX003 (ip), vehicle: saline sonified) was 110 % of control, the T/C (dose: 12.5 mg/kg/injection, schedule: Q04DX003 (ip), vehicle: saline sonified) was 100 % of control and the T/C (dose: 25.0 mg/kg/injection, schedule: Q04DX003 (ip), vehicle: saline sonified) was 110 % of control.

`CC(O)C1CCCNC1` (stereo not given) was tested, and the T/C (dose: 50.0 mg/kg/injection, schedule: Q01DX009 (ip), vehicle: saline) was 110 % of control, the T/C (dose: 100.0 mg/kg/injection, schedule: Q01DX009 (ip), vehicle: saline) was 100 % of control and the T/C [6] was 108 % of control. For the same molecule, the T/C [7] was 104 % of control.

For `CNCCCC12CC(c3ccccc31)c1ccccc12`, the T/C (dose: 25.0 mg/kg/injection, schedule: Q01DX009 (ip), vehicle: saline with Tween-80) was 103 % of control, the T/C [8] was 101 % of control and the T/C [4] was 112 % of control.

`CCSC1(SCC)C(=O)OC2=C(CCCCC2)C1N(C)C` (stereo not given) was tested, and the T/C [8] was 96 % of control, the T/C [4] was 95 % of control and the T/C [5] was 103 % of control.

`COc1cc(NS(C)(=O)=O)ccc1Nc1c2ccc([N+](=O)[O-])cc2nc2c(C)c(C)ccc12` was tested, and the T/C (dose: 0.29 mg/kg/injection, schedule: Q04DX003 (ip), vehicle: saline with Tween-80) was 112 % of control, the T/C (dose: 0.44 mg/kg/injection, schedule: Q04DX003 (ip), vehicle: saline with Tween-80) was 154 % of control and the T/C (dose: 0.88 mg/kg/injection, schedule: Q01DX009 (ip), vehicle: saline with Tween-80) was 185 % of control. For the same molecule, the T/C (dose: 1.0 mg/kg/injection, schedule: Q04DX003 (ip), vehicle: saline with Tween-80) was 154 % of control, the T/C (dose: 1.33 mg/kg/injection, schedule: Q01DX009 (ip), vehicle: saline with Tween-80) was 203 % of control and the T/C (dose: 2.0 mg/kg/injection, schedule: Q01DX009 (ip), vehicle: saline with Tween-80) was 254 % of control. The T/C (dose: 2.66 mg/kg/injection, schedule: Q01DX009 (ip), vehicle: saline with Tween-80) was 269 % of control, the T/C (dose: 3.0 mg/kg/injection, schedule: Q01DX009 (ip), vehicle: saline with Tween-80) was 273 % of control and the T/C (dose: 4.0 mg/kg/injection, schedule: Q01DX009 (ip), vehicle: saline with Tween-80) was 272 % of control. For the same molecule, the T/C (dose: 6.0 mg/kg/injection, schedule: Q01DX009 (ip), vehicle: saline with Tween-80) was 211 % of control, the T/C (dose: 9.0 mg/kg/injection, schedule: Q01DX009 (ip), vehicle: saline with Tween-80) was 295 % of control and the T/C (dose: 22.0 mg/kg/injection, schedule: Q04DX003 (ip), vehicle: saline with Tween-80) was 236 % of control and 281 % of control. For the same molecule, the T/C (dose: 25.0 mg/kg/injection, schedule: Q04DX003 (ip), vehicle: saline) was 260 % of control, the T/C (dose: 33.0 mg/kg/injection, schedule: Q04DX003 (ip), vehicle: saline with Tween-80) was 272 % of control and 281 % of control and the T/C [1] was 272 % of control and 281 % of control. The T/C (dose: 50.0 mg/kg/injection, schedule: Q04DX003 (ip), vehicle: saline) was 230 % of control, the T/C (dose: 75.0 mg/kg/injection, schedule: Q04DX003 (ip), vehicle: saline with Tween-80) was 272 % of control and 122 % of control and the T/C [6] was 95 % of control.

`[Br][Co][Br].[NH-]CC[NH-].[NH-]CC[NH-]` was tested, and the T/C [7] was 109 % of control.

`O=C(O)c1cc2c(Br)cccc2c2cc(C(F)(F)F)ccc12` was tested, and the T/C (dose: 50.0 mg/kg/injection, schedule: Q04DX003 (ip), vehicle: saline sonified) was 95 % of control, the T/C [2] was 100 % of control and the T/C (dose: 200.0 mg/kg/injection, schedule: Q04DX003 (ip), vehicle: saline sonified) was 100 % of control.
